Tests used:
[1] = Heating test in acrylic acid: inhibition period at 120° C. under air; conditions: PTZ 20 ppm in acrylic acid, average of three
Method: In this example, heating tests in acrylic acid (AA) were carried out. In this test, a sample of acrylic acid is maintained at 120° C. under an air atmosphere and the time until occurrence of turbidity in the solution is determined. The time is considered to be the inhibition period (IP) of the acrylic acid sample.
A part 1 was taken from the pure acrylic acid distillate RD and a stock solution 1 comprising 1000 ppm by weight of phenothiazine (PTZ) was produced with stirring.
40 parts by weight of stock solution 1 were mixed with 960 parts by weight of the pure acrylic acid distillate RD so as to give the stock solution 3. Part of this stock solution 3 was divided into identical samples having volumes of 1 ml.
Samples taken from the stock solutions 2 were combined with the various 1 ml samples obtained from the stock solutions 3 in such a way that the desired compositions of acrylic acid, phenothiazine (PTZ), ionic liquids IL, solvents LM or mixtures IL/LM of ionic liquids IL with solvents LM were obtained by doping. The doped samples produced in this way were provided for further examination on the same day. For repeat measurements, fresh doped samples were produced in order to minimize the influence of the acrylic acid oligomers obtained by Michael oligomerization.
To examine the polymerization tendency of the respective doped sample, three HPLC vials (transparent vessels having a fill volume of 1.5 ml) were in each case charged with 0.5 ml of the respective sample under air and subsequently tightly closed by means of a crimped cap. Immediately after production, in each case up to 92 vials charged as described were hung in a holder made for this purpose and kept at a temperature of 120° C. in a convection drying oven while the holder rotated at six revolutions per minute in order to ensure complete mixing in the vials (the liquid content of the respective vial came into contact with the crimped cap six times per minute). The time T to complete polymerization of the respective sample in the associated vial was then measured. For this purpose, the samples in the vials in the drying oven were monitored by means of a digital video camera and the video film was subsequently evaluated visually.
Three associated values of T were determined in this way for each doped sample and these were arithmetically averaged.
When mixtures of ionic liquid and solvent were used as additive, the weight ratio of ionic liquid to solvent or to the solvent mixture (IL/LM) was 20/80.

[2] = Hansen solubility parameters and solubility distance Ra of solvents; assay type: physicochemical; design: key: solubility distance Ra in MPa^1/2; conditions: solubility distance calculated from formula 1
Description: The value will hereinafter also be referred to as solubility distance Ra. The definition and calculation of the solubility parameters in the three-dimensional Hansen solubility space are described in: C. M. Hansen: “The three dimensional solubility parameters” J. Paint Technol. […] In this Hansen space, δD denotes the LONDON dispersion forces, δP denotes the Debye interaction forces between permanent dipoles and also the Keesom interaction forces between induced and permanent dipoles and δH denotes the specific interaction forces (hydrogen bonds, acid/base, donor/acceptor, etc.). The unit of the parts of the parameters is in each case [MPa^1/2].
The Hansen solubility parameters for many solvents are tabulated in standard works such as Hansen Solubility Parameters: A User's Handbook, C. […] It is also possible to use known modeling software, for example HSPIP 3.1.14 (3rd Edition), developed and marketed by C. M. Hansen, in order to calculate the Hansen solubility parameters on the basis of the chemical structure of the solvent.

[3] = relative static permittivity, liquid pure substance; cited from earlier work
[4] = Hansen solubility parameter, room temperature, about 23° C., cited from earlier work; for δD: LONDON dispersion forces; for δP: dipole interaction forces; for δH: specific interaction forces (hydrogen bonds etc.)
[5] = Solubility of phenothiazine in ionic liquid/solvent mixtures relative to pure solvent; conditions: 20% by weight ionic liquid, 80% by weight solvent; room temperature; FIGS. 1 to 4
Method: In the same way, the solubility of phenothiazine in the pure solvent was determined.

[6] = Phase diagram of the system phenothiazine/proglyme/EMIM acetate; assay type: physicochemical; conditions: room temperature, FIG. 5
Method: (§1) The phase diagram (triangular diagram) of the system phenothiazine/proglyme/EMIM acetate was determined at room temperature. In the triangular diagram, the corners correspond to the pure materials. The sides of the triangle correspond to two-component mixtures. The proportions of phenothiazine/proglyme/EMIM acetate at any point P are given by the intersections of the parallels to the side through P with the other sides. The phase behavior (single-phase, two phases liquid/liquid, two phases solid/liquid, three-phase) at selected points is indicated by symbols.

[7] = Phase diagram of the system phenothiazine/proglyme/EMIM ethylsulfate; assay type: physicochemical; conditions: room temperature, FIG. 6
Method: as §1, with “phenothiazine/proglyme/EMIM ethylsulfate” for “phenothiazine/proglyme/EMIM acetate”, “the sides” for “the side”

Molecule	Inhibiting period ([1]; additive 1000 ppm)	Ra [2]	εr at 20° C. [3]	δD [4]	δP [4]	δH [4]	other results
CN(C)CCCN [3-(Dimethylamino)-1-propylamine, 3-(dimethylamino)-1-propylamine]	407 min						
CC(=O)O [Acetic acid]	347 min						
CC#N [Acetonitrile]	335 min	7.8	36.8	15.3 MPa^1/2	18.0 MPa^1/2	6.1 MPa^1/2	
CCCCC(CC)COC(=O)C(C)O (centres unmarked) [Agnique AE 3 2 EH, 2-ethylhexyl lactate]	279 min						
CC(O)C(=O)N(C)C (centres unmarked) [Agnique AMD 3 L, N,N-dimethyllactamide]	405 min						
CCCCCCCCO [Agnique FOH 898, n-octanol]	332 min						
COc1ccc(C(OC)OC)cc1 [Anisacetal, p-(dimethoxymethyl)anisole]	320 min						
N#Cc1ccccc1 [Benzonitrile]	334 min	4.6	25.7	18.8 MPa^1/2	12.0 MPa^1/2	3.3 MPa^1/2	
OCc1ccccc1 [Benzyl alcohol]	355 min						
CCCCCCCCCC(=O)N(C)C [C10-fatty acid dimethylamide]	335 min		13.8	16.6 MPa^1/2	6.7 MPa^1/2	5.7 MPa^1/2	
O=C1CCCCC1 [Cyclohexanone]	75 min	3.2	16.1	17.8 MPa^1/2	8.4 MPa^1/2	5.1 MPa^1/2	
O [DI water, deionized water]	327 min						
C[S+](C)[O-] [DMSO]	317 min	7.4	47.3	18.4 MPa^1/2	16.4 MPa^1/2	10.2 MPa^1/2	
C1CCC2CCCCC2C1 (centres unmarked) [Decahydronaphthalene]	347 min						
CCCCC(CC)COC(=O)CCCCC(=O)OCC(CC)CCCC (centres unmarked) [Di(2-ethylhexyl) adipate]	350 min	6.8	2.1	16.2 MPa^1/2	4.6 MPa^1/2	7.7 MPa^1/2	
CCCCOC(=O)CCCCC(=O)OCCCC [Dibutyl adipate (Cetiol B), Dibutyl adipate]	347 min	6.8	3.0	16.4 MPa^1/2	4.3 MPa^1/2	5.9 MPa^1/2	
COC(=O)c1ccccc1C(=O)OC [Dimethyl phthalate]	348 min						

Molecule	Inhibiting period ([1]; additive 1000 ppm)	Ra [2]	εr at 20° C. [3]	δD [4]	δP [4]	δH [4]	other results
COC(=O)CCC(=O)OC [Dimethyl succinate]	348 min	4.7	7.3	16.1 MPa^1/2	7.7 MPa^1/2	8.8 MPa^1/2	
CN1CCN(C)C1=O [Dimethylethyleneurea]	313 min						
COCC(C)OCC(C)OC (centres unmarked) [Dipropylene glycol dimethyl ether]	339 min	7.1	10.4	15.5 MPa^1/2	4.6 MPa^1/2	6.1 MPa^1/2	
OCCO [Ethylene glycol]	365 min						relative solubility of phenothiazine in a mixture of ionic liquid and solvent, based on the solubility in the pure solvent [5]: only a small solubility-increasing effect or solubility-reducing effect
NCCN [Ethylenediamine]	341 min						
COC(=O)c1ccccc1 [Methyl benzoate]	350 min	4.9	6.7	18.9 MPa^1/2	8.2 MPa^1/2	4.7 MPa^1/2	
CCCCC(C)=O [Methyl butyl ketone]	309 min	6.3	14.5	15.3 MPa^1/2	6.1 MPa^1/2	4.1 MPa^1/2	
C1COCCN1 [Morpholine]	410 min	8.1	7.8	18.0 MPa^1/2	4.9 MPa^1/2	11.0 MPa^1/2	
Cn1ccnc1 [N-Methylimidazole]	366 min	8.8	32.0	19.7 MPa^1/2	15.6 MPa^1/2	11.2 MPa^1/2	
CN1CCCC1=O [N-Methylpyrrolidone]	343 min	8.2	32.8	16.8 MPa^1/2	2.8 MPa^1/2	6.7 MPa^1/2	
CCC(=O)O [Propionic acid]	337 min						
O=S1(=O)CCCC1 [Sulfolane]	330 min		42.7				
c1ccc2c(c1)Nc1ccccc1S2 [phenothiazine]							phase behavior (compatibility of ionic liquid and solvent) [6]: an incompatibility between the ionic liquid and the solvent (formation of two liquid phases) is eliminated by the addition of phenothiazine above a particular concentration; solubility of phenothiazine in the solvent on addition of ionic liquid [6]: even small additions of the ionic liquid increase the solubility of phenothiazine in the solvent, with a linear increase up to the solubility in the pure ionic liquid; phase behavior (compatibility of ionic liquid and solvent) [7]: an incompatibility between the ionic liquid and the solvent (formation of two liquid phases) is eliminated by the addition of phenothiazine above a particular concentration; solubility of phenothiazine in the solvent on addition of ionic liquid [7]: even small additions of the ionic liquid increase the solubility of phenothiazine in the solvent, with a linear increase or a slight synergistic effect up to solubility in the pure ionic liquid
O=C1CCCO1 [γ-Butyrolactone]	361 min	6.1	41.4	18.0 MPa^1/2	16.6 MPa^1/2	7.4 MPa^1/2	
N-ethyl-N′-methylimidazolium ethylsulfate [EMIM ethylsulfate]							Inhibiting period ([1]; additive 29 ppm): 386 min
N-ethyl-N′-methylimidazolium isononanoate [EMIM isononanoate]	379 min						
tetrabutylammonium [2-(2-methoxyethoxy)ethoxy]acetate [TBA ether carboxylate]							Inhibiting period ([1]; additive 22 ppm): 378 min
